Results published in patent US11815509B2, “Cell line and uses thereof” (priority 2017, dated 2023).

Key:
MUTZ-3 cells = settings: 24 h stimulation, compared between the two chemicals, FIG. 6
SenzaCell cells = settings: 24 h stimulation, compared between the two chemicals, FIG. 6

C=CC(=O)OCCO [2-hydroxyethylacrylate]
SVM prediction value (prediction pattern) (MUTZ-3 cells): higher prediction value than DNCB
SVM prediction value (prediction pattern) (SenzaCell cells): higher prediction value than DNCB
